Source: ChEMBL document CHEMBL1156829 (Proc Natl Acad Sci U S A, 2008)

How the values were obtained:
Plasmodium falciparum [1] = assay: NOVARTIS: Inhibition of Plasmodium falciparum 3D7 (drug-susceptible) proliferation in erythrocyte-based infection assay; type: functional, organism-based; settings: Plasmodium falciparum, 3D7
Plasmodium falciparum [2] = assay: NOVARTIS: Inhibition of Plasmodium falciparum W2 (drug-resistant) proliferation in erythrocyte-based infection assay; type: functional, organism-based; settings: Plasmodium falciparum, W2; read-out: EC50
[3] = NOVARTIS: Cytotoxicity against human hepatocellular carcinoma cell line (Huh7); type: toxicity, cell-based, Huh-7; settings: Huh7 cells (hepatocellular carcinoma cell line)

Structure (SMILES)	EC50 (Plasmodium falciparum [1]) [µM]	EC50 (Plasmodium falciparum [2]) [µM]	CC50 [3] [µM]
O=C(Nc1ccc(Cl)c(Cl)c1)Nc1ccc(Cl)c(Cl)c1	1.03	0.46	20.2
Cc1ccc(S(=O)(=O)NC(=O)Nc2ccc(N(C)C)cc2)cc1	0.324	0.467	20.4
CCN1/C(=C/c2sc3ccccc3[n+]2CC)C=Cc2cc(NC(C)=O)ccc21	0.255	0.225	> 10
COc1ccc(OCC(=O)Nc2cccc(NC(=O)COc3ccc(OC)cc3)n2)cc1	6.84	2.29	> 100
O=C(c1ccc(-n2c(SCc3ccc(Cl)cc3)nc3ccccc3c2=O)cc1)N1CCOCC1	> 12.5	2.28	> 100
Nc1ccc(-c2nc3cc(-c4ccc5[nH]c(-c6ccc(N)cc6)nc5c4)ccc3[nH]2)cc1	0.579	0.234	> 10
COc1cc(OC)nc(C(Sc2ccc(NC(=O)c3cccs3)cc2)c2ccccc2)n1 (stereo not drawn)	0.175	0.225	> 10
CCN1CCN(c2cc(C)c3cc(NC(=O)c4ccc(OC)c([N+](=O)[O-])c4)ccc3n2)CC1	0.273	0.344	15.4
CCOC(=O)C1=C(c2ccccc2)N=c2sc(=Cc3cc(C)n(-c4ccc(F)cc4)c3C)c(=O)n2C1c1cccc(OC)c1OC (stereo not drawn)	2.33	2.28	> 100
CCOC(=O)NN=CC=NNC(=O)OCC	0.199	0.235	> 10
CCC(c1nc2ccccc2c(=O)n1-c1ccc(Cl)cc1C)N(CCc1ccccc1)C(=O)c1cccc(OC)c1 (stereo not drawn)	0.519	0.232	> 10
COc1ccc(-c2nc(NC(=O)CS(=O)(=O)c3ccccc3)sc2C)cc1	0.505	2.31	> 100
CN1CCN(NC=C2C(=O)N(c3nc4ccccc4s3)N=C2c2ccccc2)CC1	> 12.5	2.3	> 100
COc1ccc(C=C2SC(=N)N(c3ccc4c(c3)OCO4)C2=O)cc1OC	> 9.75	2.28	> 100
COc1ccc(-c2cc(C3CCN(c4nc(N)c5cc(OC)c(OC)cc5n4)CC3)n[nH]2)cc1OC	0.202	0.379	16.4
O=[N+]([O-])c1ccc(-c2ccc(C=NNc3ccccn3)o2)cc1	2.43	2.29	> 100
COc1ccc([N+](=O)[O-])cc1-c1ccc(C=C(C#N)c2nn(CCO)c(N)c2C#N)o1	> 12.5	2.29	> 100
C=CCNC(=O)c1cc2c(=O)n3ccccc3nc2n(CCc2ccccc2)c1=N	1.53	2.31	> 100
COc1ccccc1/C=C/C1=NC(=C\c2ccc(SC)cc2)/C(=O)O1	> 1.25	0.228	> 10
FC(F)(F)c1ccccc1CN1CCc2nc(N3CCCCC3)sc2C1	0.253	0.228	> 10
O=C(Nc1ccc(C2=NCCN2)c(Cl)c1)c1ccc(C(=O)Nc2ccc(C3=NCCN3)c(Cl)c2)cc1	0.554	0.234	> 10
O=c1ccc2cc(Cl)c(O)c(Cl)c2o1	> 1.25	> 0.234	> 10
CCCCCCCCCC[n+]1c(C)n(CC)c2cc(Cl)c(Cl)cc21	0.613	0.49	21
COc1cccc(NCC(O)Cn2c3ccc(Cl)cc3c3cc(Cl)ccc32)c1 (stereo not drawn)	2.13	1.19	51.3

Structure (SMILES)	EC50 (Plasmodium falciparum [1]) [µM]	EC50 (Plasmodium falciparum [2]) [µM]	CC50 [3] [µM]
CCN1CCC(NC2CCCc3c2[nH]c2ccc([N+](=O)[O-])cc32)CC1 (stereo not drawn)	0.497	0.337	14.5
O=C(C[n+]1cc(-c2ccc(F)cc2)n2c1CCC2)Nc1ccc(Cl)cc1	2.88	2.3	> 100
CC1CCN(c2ncnc3sc4c(c23)CCC(C)C4)CC1 (stereo not drawn)	1.05	2.3	> 100
O=C(NCc1ccc(Cl)cc1)C1CNCC1c1ccc(C(F)(F)F)cc1 (stereo not drawn)	0.392	0.412	18.2
COc1ccccc1CNC(=O)C1c2ccccc2C(=O)N2CCc3ccccc3C12 (stereo not drawn)	4.9	2.25	> 100
CN(CCCNc1ccnc2cc(Cl)ccc12)C(=O)C(C)(C)C	0.203	0.225	> 10
CC1CN(C(=O)CCCSc2nnc(Cc3ccccc3)n2-c2ccc(Cl)c(Cl)c2)CC(C)O1 (stereo not drawn)	> 12.5	2.23	> 100
Cc1ccc(NC(=O)c2sc3nc4c(c(-c5cccs5)c3c2N)CCCC4)cc1	0.442	2.22	> 100
CC(C)NC(=O)c1cn(Cc2ccccc2)cc(C(=O)NCCc2nc3ccccc3[nH]2)c1=O	3.34	2.22	> 100
Cc1ccc2nc3nc4c(C)cccc4c(N)c3cc2c1	0.102	0.157	6.94
Oc1ccc(Cl)cc1C1CC(c2ccc(Cl)cc2)=NC(c2ccc(Cl)cc2)N1 (stereo not drawn)	0.813	0.783	34.7
CC(=O)Nc1cccc(-c2cncc(-c3ccc(C(=O)O)cc3)n2)c1	1.15	2.25	> 100
Brc1cccc(CNC2CCN(CCc3ccccc3)CC2)c1	0.31	0.515	22.9
C=CCOc1cccc(C(Nc2cccc(C)n2)c2ccc3cccnc3c2O)c1 (stereo not drawn)	5.75	1.56	> 69.4
CN1C=CC=C/C1=C\C=C1\C=Nc2ccccc21	0.276	0.223	> 10
c1ccc(-c2cc(N3CCC4(CC3)OCCO4)nc(-c3ccccn3)n2)nc1	0.42	0.223	> 10
CCCC(=O)Oc1ccccc1-c1nc2ccccn2c1NC(C)(C)CC(C)(C)C	0.793	0.044	1.96
CC12CCC(CN(CC(O)Cn3c4ccc(Br)cc4c4cc(Br)ccc43)C1)C2(C)C (stereo not drawn)	2.96	2.2	> 100
c1ccc2c(c1)c1c(c3ccccc32)CN2CCCC2C1 (stereo not drawn)	0.12	0.221	> 10
Cc1ccc(Nc2nc(NCc3ccccc3)c3ccccc3n2)cc1	0.184	0.241	10.9
CCN(CC)C/C=C/C1(O)c2ccccc2-c2ccccc21	1.01	0.221	> 10
CC(=O)NC(=Cc1ccc(OC(F)F)cc1)C(=O)O	> 12.5	2.27	> 100
Cc1cc(Nc2ccc(N(C)C)cc2)n2ncnc2n1	6	2.27	> 100
CCOc1ccc(NC(=O)NC(Cc2c[nH]c3ccccc23)C(=O)N2CCN(C(=O)NC(C)C)C(C)C2)cc1 (stereo not drawn)	0.259	0.223	> 10

Structure (SMILES)	EC50 (Plasmodium falciparum [1]) [µM]	EC50 (Plasmodium falciparum [2]) [µM]	CC50 [3] [µM]
CN1CCN(c2nc(NCCNc3ccc([N+](=O)[O-])cc3)c3ccccc3n2)CC1	0.537	0.424	19
CN(C)CCNc1ncnc2c1[nH]c1ccc(Br)cc12	0.1	0.476	21.1
Cc1cccc(CCNc2cc(C)nc3nc(C)nn23)c1	2.42	2.29	> 100
Cc1ccc(-c2nnc(SCCCC(=O)NC(Cc3ccccc3)c3ccccc3)n2-c2cccc(Cl)c2)cc1 (stereo not drawn)	> 12.5	0.621	> 27.6
CCN(CC)c1nc(-c2cccnc2)nc2ccccc12	5.64	1.6	72.2
CSCCN1CCc2ccc3[nH]cc(-c4cccc(Cl)c4)c3c2C1	0.108	0.224	> 10
CC(=O)Nc1nc(C)c(-c2csc(Nc3ccc(Br)cc3)n2)s1	0.696	0.859	38.1
CC(C)CC(=O)Nc1nnc(-c2ccc(Br)cc2)s1	> 9.04	2.33	> 100
COc1cc[n+](OC(=O)N2CCCCC2)c(C)c1	0.188	0.81	36.6
COc1ccc(Nc2ccccc2NC(=O)c2cccc(N(C)C)c2)cc1	2.45	2.29	> 100
Cn1nc(-c2ccccc2)c2c(C(=O)C(F)(F)F)cc(C(=O)C(F)(F)F)c-2c1-c1ccccc1	8.23	2.33	> 100
CCCCOc1ccc(NC2=NC3(CCCC3)NC(N)=N2)cc1	1.09	2.33	> 100
COC(=O)c1ccc(Nc2nc(NCc3ccco3)c3ccccc3n2)cc1	0.279	0.433	18.8
Cc1ccc(C(=O)N(C)CCCNc2ccnc3cc(Cl)ccc23)cc1	0.141	0.122	5.37
CCN(CC)CCNc1nc2cc(OC)c(OC)cc2c2nc(-c3ccccc3)nn12	1.67	1.8	77.2
Cc1ccc(Nc2nc(NCCO)c3ccccc3n2)cc1C	0.175	0.108	4.9
OCCc1cn(-c2ccccc2)c2ccccc12	0.717	0.226	> 10
COC(=O)C1=C(C)N(C)C(C)=C(C(=O)OC)C1c1ccc([N+](=O)[O-])cc1	0.633	2.26	> 100
CCOC(=O)c1nnn(-c2nonc2-n2cccc2)c1CN1CCCCC1	2.43	2.21	> 100
O=C(C[n+]1cc(-c2ccccc2)n2c1CCC2)c1ccc(C2CCCCC2)cc1	0.312	0.393	17.1
S=C(NCc1ccco1)NC1CC2CCC(C1)N2Cc1ccccc1 (stereo not drawn)	0.865	2.24	> 100
CC1(C)CC(NC(=O)Cc2ccc(Cl)cc2)CC(C)(C)N1	> 12.5	2.3	> 100
COc1ccc(/C=C2\SC(=Nc3ccccc3)NC2=O)cc1	0.342	0.233	> 10
